Earlier results as cited in patent US6759057B1, “Methods and compositions using liposome-encapsulated non-steroidal anti-inflammatory drugs” (The Liposome Company, Inc., priority 1986, dated 2004).

System: rat stomach mucosa
Conditions: rats dosed with Prostaglandin E2

In the case of `CCCCC[C@H](O)/C=C/[C@H]1[C@H](O)CC(=O)[C@@H]1C/C=C\CCCC(=O)O` [Prostaglandin E2], the “increase in the major gastric surface protective surfactant” value is given as 2-6 fold.
